Assays:
[1] = Half-lives of hydrolysis of the prodrugs in human serum
[2] = Half-lives of hydrolysis of the prodrugs in phosphate buffer at pH 7.4
physchem = settings: buffer, pH 7.4, Half-life of hydrolysis
[3] = pH 7.4, Half-life of hydrolysis, Buffer, phosphate buffer at ph 7.4
[4] = Half-life of hydrolysis, Serum (to mono), hydrolysis to mono
[5] = pH 7.4, Half-life of hydrolysis, Buffer (to mono), phosphate buffer at ph 7.4, hydrolysis to mono

SMILES	half-life ([1]; Half-life of hydrolysis, Serum) [h]	half-life [2, 3] [h]	other results
O=C(COCCOCCO)OCC1CCC(n2cnc3c(=O)[nH]cnc32)O1 (stereo not drawn)	0.0917 ± 0.00833	46	–
COCCOCC(=O)OCC1CCC(n2cnc3c(=O)[nH]cnc32)O1 (stereo not drawn)	0.0367	40	–
O=C(COCCOCCO)Nc1ccn(C2CCC(COC(=O)COCCOCCO)O2)c(=O)n1 (stereo not drawn)	–	–	half-life [1, 4]: 0.0833 ± 0.0167 h; half-life [2, 5]: 20 h
Nc1ccn(C2CCC(COC(=O)COCCOCCO)O2)c(=O)n1 (stereo not drawn)	0.167 ± 0.0167	30	–
Cc1cn(C2CC(N=[N+]=[N-])C(COC(=O)COCCOCCO)O2)c(=O)[nH]c1=O (stereo not drawn)	0.333 ± 0.0167	21	–
COCCOCC(=O)OCC1OC(n2cc(C)c(=O)[nH]c2=O)CC1N=[N+]=[N-] (stereo not drawn)	0.06 ± 0.00167	13.3 ± 0.2	–
CC(C)c1nc(CN(C)C(=O)N[C@H](C(=O)N[C@@H](Cc2ccccc2)C[C@H](OC(=O)COCCOCCO)[C@H](Cc2ccccc2)NC(=O)OCc2cncs2)C(C)C)cs1	24	96	–
COCCOCC(=O)O[C@H](CN1CC[C@H]2CCCC[C@H]2[C@H]1C(=O)NC(C)(C)C)[C@H](Cc1ccccc1)NC(=O)[C@H](CC(N)=O)NC(=O)c1ccc2ccccc2n1	16 ± 1	3.2 ± 0.5	–
CC(C)(C)NC(=O)[C@@H]1[C@@H]2CCCC[C@@H]2CCN1C[C@@H](OC(=O)COCCOCCO)[C@H](Cc1ccccc1)NC(=O)[C@H](CC(N)=O)NC(=O)c1ccc2ccccc2n1	6 ± 0.5	3.1 ± 0.1	–
COCCOCC(=O)OCC(=O)[C@@]12OC(C)(C)O[C@@H]1CC1C3CCC4=CC(=O)C=CC4(C)[C@@]3(F)[C@@H](O)CC12C (stereo partly drawn)	–	–	half-life (physchem): 15 h
COCCOCC(=O)OCn1cc(F)c(=O)[nH]c1=O	0.1	1.47	–
COCCOCC(=O)OCn1cc(F)c(=O)n(COC(=O)COCCOC)c1=O	–	–	half-life [1, 4]: 0.00333 h; half-life [2, 5]: 1.47 h
COCCOCC(=O)OCn1c(=O)[nH]cc(F)c1=O	0.00833	9.1	–
CC[C@@]1(OC(=O)COCCOC)C(=O)OCc2c1cc1n(c2=O)Cc2cc3ccccc3nc2-1	2	26	–
CC[C@@]1(OC(=O)COCCOCCO)C(=O)OCc2c1cc1n(c2=O)Cc2cc3ccccc3nc2-1	–	–	half-life [1]: 1.9 h; half-life ([2]; pH 7.4): 30 h
COCCOCC(=O)O[C@@H](C[C@H](Cc1ccccc1)NC(=O)[C@@H](NC(=O)N(C)Cc1csc(C(C)C)n1)C(C)C)[C@H](Cc1ccccc1)NC(=O)OCc1cncs1	24	> 48	–
COCCOCC(=O)OCCOCn1cnc2c(=O)[nH]c(N)nc21	0.0917	30	–
COCCOCCOCC(=O)OCC1CCC(n2cnc3c(=O)[nH]cnc32)O1 (stereo not drawn)	0.02	30	–
COCCOCCOCC(=O)Nc1ccn(C2CCC(COC(=O)COCCOCCOC)O2)c(=O)n1 (stereo not drawn)	0.583 ± 0.0833	14 ± 1	–
COCCOCCOCC(=O)OCC1CCC(n2ccc(N)nc2=O)O1 (stereo not drawn)	0.075	24	–

SMILES	half-life ([1]; Half-life of hydrolysis, Serum) [h]	half-life [2, 3] [h]	other results
COCCOCCOCC(=O)OCC1OC(n2cc(C)c(=O)[nH]c2=O)CC1N=[N+]=[N-] (stereo not drawn)	0.4033 ± 0.00333	12.3 ± 0.1	–
COCCOCCOCC(=O)O[C@H](CN1CC[C@H]2CCCC[C@H]2[C@H]1C(=O)NC(C)(C)C)[C@H](Cc1ccccc1)NC(=O)[C@H](CC(N)=O)NC(=O)c1ccc2ccccc2n1	10 ± 1	3.5 ± 0.2	–
COCCOCCOCC(=O)OCC(=O)[C@@]12OC(C)(C)O[C@@H]1CC1C3CCC4=CC(=O)C=CC4(C)[C@@]3(F)[C@@H](O)CC12C (stereo partly drawn)	–	–	half-life (physchem): 12 h
COCCOCCOCC(=O)OCn1cc(F)c(=O)[nH]c1=O	0.15	3.73	–
COCCOCCOCC(=O)OCn1cc(F)c(=O)n(COC(=O)COCCOCCOC)c1=O	–	–	half-life [1, 4]: 0.00833 h; half-life [2, 5]: 1.47 h
COCCOCCOCC(=O)OCn1c(=O)[nH]cc(F)c1=O	0.0167	7.28	–
CC[C@@]1(OC(=O)COCCOCCOC)C(=O)OCc2c1cc1n(c2=O)Cc2cc3ccccc3nc2-1	–	–	half-life [1]: 2 h; half-life ([2]; pH 7.4): 25 h
COCCOCCOCC(=O)OCC(CO)OCn1cnc2c(=O)[nH]c(N)nc21 (stereo not drawn)	0.2	26	–
COCCOCCOCC(=O)OCC(COC(=O)COCCOCCOC)OCn1cnc2c(=O)[nH]c(N)nc21	0.617	10	–
COCCOCCOCC(=O)OCCOCn1cnc2c(=O)[nH]c(N)nc21	0.0167	22	–
COCCOCCOCC(=O)O[C@@H](C[C@H](Cc1ccccc1)NC(=O)[C@@H](NC(=O)N(C)Cc1csc(C(C)C)n1)C(C)C)[C@H](Cc1ccccc1)NC(=O)OCc1cncs1	> 48	> 96	–
COCCOCCOCC(=O)Oc1cc(/C=C\c2cc(OC)c(OC)c(OC)c2)ccc1OC	–	–	half-life [1]: 0.0333 h; half-life ([2]; pH 7.4): 10 h
O=C(O)COCC(=O)OCC1CCC(n2cnc3c(=O)[nH]cnc32)O1 (stereo not drawn)	0.0667 ± 0.00833	9.4 ± 0.1	–
COC(=O)COCC(=O)OCC1CCC(n2ccc(N)nc2=O)O1 (stereo not drawn)	0.1 ± 0.00333	10 ± 0.5	–
CC(C)c1nc(CN(C)C(=O)N[C@H](C(=O)N[C@@H](Cc2ccccc2)C[C@H](OC(=O)COCC(=O)O)[C@H](Cc2ccccc2)NC(=O)OCc2cncs2)C(C)C)cs1	40	> 240	–
COC(=O)COCC(=O)O[C@@H](C[C@H](Cc1ccccc1)NC(=O)[C@@H](NC(=O)N(C)Cc1csc(C(C)C)n1)C(C)C)[C@H](Cc1ccccc1)NC(=O)OCc1cncs1	2.4	5.5	–
COC(=O)COCC(=O)O[C@H](CN1CC[C@H]2CCCC[C@H]2[C@H]1C(=O)NC(C)(C)C)[C@H](Cc1ccccc1)NC(=O)[C@H](CC(N)=O)NC(=O)c1ccc2ccccc2n1	4.5	2.5	–
CC1(C)O[C@@H]2CC3C4CCC5=CC(=O)C=CC5(C)[C@@]4(F)[C@@H](O)CC3(C)[C@]2(C(=O)COC(=O)COCC(=O)O)O1 (stereo partly drawn)	–	–	half-life (physchem): 1 h
CC[C@@]1(OC(=O)COCC(=O)OC)C(=O)OCc2c1cc1n(c2=O)Cc2cc3ccccc3nc2-1	–	–	half-life [1]: 0.0333 h; half-life ([2]; pH 7.4): 6.1 h
CN(C)CCOCCOC(=O)COCC(=O)O[C@H](CN1CC[C@H]2CCCC[C@H]2[C@H]1C(=O)NC(C)(C)C)[C@H](Cc1ccccc1)NC(=O)[C@H](CC(N)=O)NC(=O)c1ccc2ccccc2n1	25	7	–

SMILES	half-life ([1]; Half-life of hydrolysis, Serum) [h]	half-life [2, 3] [h]	other results
CN(C)CCOC(=O)COCC(=O)O[C@H](CN1CC[C@H]2CCCC[C@H]2[C@H]1C(=O)NC(C)(C)C)[C@H](Cc1ccccc1)NC(=O)[C@H](CC(N)=O)NC(=O)c1ccc2ccccc2n1	35	10	–
CC[C@@]1(OC(=O)COCC(=O)OCCN(C)C)C(=O)OCc2c1cc1n(c2=O)Cc2cc3ccccc3nc2-1	–	–	half-life [1]: < 0.0167 h; half-life ([2]; pH 7.4): 0.0833 h
CN(C)CCOCCOC(=O)COCC(=O)OCC1CCC(n2cnc3c(=O)[nH]cnc32)O1 (stereo not drawn)	0.05	3.5	–
CC[C@@]1(OC(=O)COCC(=O)OCCOCCN(C)C)C(=O)OCc2c1cc1n(c2=O)Cc2cc3ccccc3nc2-1	–	–	half-life [1]: 0.667 h; half-life ([2]; pH 7.4): 3 h
CC(C)c1nc(CN(C)C(=O)N[C@H](C(=O)N[C@@H](Cc2ccccc2)C[C@H](OC(=O)COCC(=O)OCCOCCN(C)C)[C@H](Cc2ccccc2)NC(=O)OCc2cncs2)C(C)C)cs1	1	2.2	–
CC(C)OC(=O)COCC(=O)OCC1CCC(n2cnc3c(=O)[nH]cnc32)O1 (stereo not drawn)	0.0833	10	–
CC(C)OC(=O)COCC(=O)Nc1ccn(C2CCC(COC(=O)COCC(=O)OC(C)C)O2)c(=O)n1 (stereo not drawn)	0.162	5.6	–
CC(C)OC(=O)COCC(=O)OCC1CCC(n2ccc(N)nc2=O)O1 (stereo not drawn)	0.0217	8.2	–
CC(C)OC(=O)COCC(=O)Nc1ccn(C2CCC(CO)O2)c(=O)n1 (stereo not drawn)	3.4	18	–
CC(C)OC(=O)COCC(=O)O[C@H](CN1CC[C@H]2CCCC[C@H]2[C@H]1C(=O)NC(C)(C)C)[C@H](Cc1ccccc1)NC(=O)[C@H](CC(N)=O)NC(=O)c1ccc2ccccc2n1	10	5	–
CC(C)(C)NC(=O)[C@@H]1[C@@H]2CCCC[C@@H]2CCN1C[C@@H](OC(=O)COCC(=O)OC(C)(C)C)[C@H](Cc1ccccc1)NC(=O)[C@H](CC(N)=O)NC(=O)c1ccc2ccccc2n1	20	10	–
CC(C)(C)OC(=O)COCC(=O)OCC1CCC(n2ccc(N)nc2=O)O1 (stereo not drawn)	0.0283	11	–
CC(C)(C)OC(=O)COCC(=O)Nc1ccn(C2CCC(CO)O2)c(=O)n1 (stereo not drawn)	5	16	–
CC(C)(C)OC(=O)COCC(=O)Nc1ccn(C2CCC(COC(=O)COCC(=O)OC(C)(C)C)O2)c(=O)n1 (stereo not drawn)	0.173	6.2	–
COC(=O)COCC(=O)Oc1cc(/C=C\c2cc(OC)c(OC)c(OC)c2)ccc1OC	–	–	half-life [1]: 0.0417 h; half-life ([2]; pH 7.4): > 48 h
COc1ccc(/C=C\c2cc(OC)c(OC)c(OC)c2)cc1OC(=O)COCC(=O)O	–	–	half-life [1]: 0.0333 h; half-life ([2]; pH 7.4): 4 h
COc1ccc(/C=C\c2cc(OC)c(OC)c(OC)c2)cc1OC(=O)COCC(=O)OC(C)(C)C	0.123	8.5	–
Nc1nc2c(ncn2COCCOC(=O)COCC(=O)O)c(=O)[nH]1	25	40	–
CC(C)(C)OC(=O)COCC(=O)OCCOCn1cnc2c(=O)[nH]c(N)nc21	0.045	16	–
Nc1nc2c(ncn2COCCOC(=O)COCC(=O)OCCOCn2cnc3c(=O)[nH]c(N)nc32)c(=O)[nH]1	–	–	half-life ([1]; Half-life of hydrolysis, Serum, bis to mono): 4 h; half-life ([2]; pH 7.4, Half-life of hydrolysis, Buffer, bis to mono, phosphate buffer at ph 7.4, bis to mono): 10 h

Source: patent publication US20040214784A1, “Permeable, water soluble, non-irritating prodrugs of chemotherapeutic agents with oxaalkanoic acids” (UNIVERSITY OF KENTUCKY RESEARCH FOUNDATION, priority 1999, published 2004)
